A value given as a limit tells only on which side of the number the result lay.

Usually IC50 stands for the midpoint of a concentration-inhibition curve. For orientation: half-life means how long it takes for the measured level to halve.

Series [1] concerns HepG2 cell line tumor xenografts. Briefly: TUNEL staining of HepG2 tumor xenografts. The series is classed as in vivo, nude mice. The following applies: HepG2 xenograft, Indo5-treated.
The subject of series [2] is MDCK cells. The series is described as follows: HGF-stimulated MDCK cell scattering. The following applies: Indo5 pretreated 2 h, HGF 20 ng/ml 12 h, dose-dependent.
Method: Cells were plated into 96-well plates (1.5 × 10^3 cells/well) and grown until small colonies appeared. […] After 24h incubation, cells were fixed with 90% methanol for 30min at room temperature and stained by 1% crystal violet. Scattered clones were photographed.
Series [3] relates to Ba/F3-Tpr-Met cells. The series is described as follows: cells. Conditions: Mus musculus, read-out: IC50 of IL-3-independent growth.
Series [4] has as its system HepG2 cell line tumor xenografts. Briefly: HepG2 xenograft tumor model in nude mice. The series is classed as in vivo. Conditions: Indo5 16 mg/kg, intraperitoneally once daily, 21 days.
Method: First, 2 × 10^6 HepG2 cells, 4 × 10^6 MHCC 97H cells, 4 × 10^6MHCC 97 L cells, 2 × 10^6 A549 cells, or 5 × 10^6 SMMC-7721 cells in a volume of 200 μl PBS were inoculated subcutaneously in the right flank of each mouse. Tumor growth was measured using vernier calipers, and tumor volume (mm^3) was calculated as (L × W × H)/2. When the mean tumor volume reached 200 mm^3, the mice were randomized into four groups and treatment was initiated. […] Tumor volume were recorded every 3 days until the study was terminated. The mice were sacrificed after 21 days of treatment.
The inhibition rate was calculated.
The tumor weights were measured, and the inhibition rate was calculated. Data are shown as the mean ± S.D. and are representative of three independent experiments. **p < 0.01, ***p < 0.001
Series [5] has as its system HepG2 cells. Briefly: BDNF-induced HepG2 cell migration. Conditions: HepG2, BDNF 50 ng/ml, 24 h.
Method: For the migration assay, 2×10^5 cells were seeded on 8µm polycarbonate membrane (Transwell; Costar). […] After 24h migration cells were counted.
The nature of series [6]: Half-life in plasma. The series is classed as in vitro ADME. The following applies: data not shown.
Series [7] relates to MDCK cells. The series is described as follows: MDCK cell proliferation (MTS assay). The following applies: scattering conditions. The series is classed as cell-based, Canine. How it is done: (§1) All experiments were conducted three times.
Figure S1. […] Cell proliferation was anaylzed with MTS assay.
(Tetrazolium assays rely on reduction of a dye to a coloured formazan, in cell work by metabolically active cells.)

The target in series [8] is Ephb1 (Homo sapiens, UniProt P54762). The series is described as follows: In vitro kinase activity assay (Caliper assay format). It is filed as biochemical.
Series [9] deals with c-Met and TrkB coexpressing cell lines (c-Met^hiTrkB^hi). Briefly: Cell growth of c-Met and TrkB coexpressing cell lines. It is filed as cell-based. Conditions: Homo sapiens, read-out: IC50 value, range over cell lines.
The subject of series [10] is orthotopic tumors. Briefly: Histological examination of liver from mice bearing orthotopic tumors (H&E). Conditions: 48 mg/kg Indo5. The series is classed as in vivo. An excerpt:
Figure S8. H&E staining of livers from mice bearing orthotopic tumors treated with the vehicle or Indo5.

Series [11] concerns MHCC97L. Briefly: cells. The following applies: Homo sapiens, 72 h, read-out: IC50 (μM) ± SD. The method, then:
as §1

For series [12], the system named is MHCC97H. The series is described as follows: cells. Conditions: Homo sapiens, 72 h, read-out: IC50 (μM) ± SD. How it is done: as §1
In series [13] the target is C-KIT (Homo sapiens, UniProt P10721). Briefly: In vitro kinase activity assay (Caliper assay format). It is filed as biochemical.
Series [14] concerns c-Met signaling pathway. Briefly: HGF-induced c-Met signaling pathway activation in HepG2 cells (Western blot). The following applies: HepG2, 0.5 μM Indo5, pretreated 2 h, HGF 20 ng/ml 5 min.
Method: (a) HepG2 cells were treated with HGF (10 ng/ml) alone or HGF (10 ng/ml) and BDNF (10 ng/ml) for the indicated time and the activation of c-Met signaling pathway was examined.
For western blots, cells were lysed with M-PER? Mammalian Protein Extraction Reagent (Pierce, Rockford, IL, USA). Then, western blot analysis was performed according to standard procedures. Chemiluminescent detection was conducted using supersignal substrate (Pierce) according to the manufacturer’s specifications.
Series [15] deals with EGFR (Homo sapiens, UniProt P00533). Briefly: In vitro kinase activity assay (HDB Kinase Selectivity Profiling). It is filed as biochemical. Conditions: Kinase Glo Plus assay format. For orientation: Kinase-Glo reads ATP consumption through a luciferase reaction.
Series [16] in a line: Cytotoxicity in non-cancerous cells. The series is classed as cell-based. Conditions: human.
For series [17], the system named is MHCC97H orthotopic tumors.
From the text: For the orthotopic xenograft mouse model, MHCC97H cells were inoculated subcutaneously in the right flank of each SCID mouse. When the tumor volumes reached approximately 1 cm^3, the mice were sacrificed, and the tumors were isolated and cut into 1 mm^3 pieces. The mice were anesthetized by an intraperitoneal injection of 1% sodium pentobarbital solution. A 1-cm longitudinal skin incision was made on the right upper axillary region of the abdomen of the mouse, the peritoneum was opened and the liver was exposed. The liver was punctured by a needle, and a 1 mm^3 tumor piece was implanted. The liver was put back into the abdominal cavity gently, and the surgical opening was closed using a 5–0 surgical suture.
The tumor weights were measured (b). […] Tumor-bearing mice were sacrificed when they became moribund.
Series [18] concerns the target EGFR(T790,L858R) (Homo sapiens, UniProt P00533, L858R/T790M). Briefly: In vitro kinase activity assay (HDB Kinase Selectivity Profiling). Conditions: Kinase Glo Plus assay format. It is filed as biochemical.
For series [19], the system named is wild-type Ba/F3 cells. Briefly: Proliferation of wild-type Ba/F3 cells.
For series [20], the system named is HepG2 cells. The series is described as follows: HepG2 cell proliferation under HGF migration conditions (MTS assay). It is filed as cell-based, human. How it is done:
as §1
Figure S2. […] Cell proliferation was anaylzed with MTS assay.

Chain of C-KIT (P10721 26-976): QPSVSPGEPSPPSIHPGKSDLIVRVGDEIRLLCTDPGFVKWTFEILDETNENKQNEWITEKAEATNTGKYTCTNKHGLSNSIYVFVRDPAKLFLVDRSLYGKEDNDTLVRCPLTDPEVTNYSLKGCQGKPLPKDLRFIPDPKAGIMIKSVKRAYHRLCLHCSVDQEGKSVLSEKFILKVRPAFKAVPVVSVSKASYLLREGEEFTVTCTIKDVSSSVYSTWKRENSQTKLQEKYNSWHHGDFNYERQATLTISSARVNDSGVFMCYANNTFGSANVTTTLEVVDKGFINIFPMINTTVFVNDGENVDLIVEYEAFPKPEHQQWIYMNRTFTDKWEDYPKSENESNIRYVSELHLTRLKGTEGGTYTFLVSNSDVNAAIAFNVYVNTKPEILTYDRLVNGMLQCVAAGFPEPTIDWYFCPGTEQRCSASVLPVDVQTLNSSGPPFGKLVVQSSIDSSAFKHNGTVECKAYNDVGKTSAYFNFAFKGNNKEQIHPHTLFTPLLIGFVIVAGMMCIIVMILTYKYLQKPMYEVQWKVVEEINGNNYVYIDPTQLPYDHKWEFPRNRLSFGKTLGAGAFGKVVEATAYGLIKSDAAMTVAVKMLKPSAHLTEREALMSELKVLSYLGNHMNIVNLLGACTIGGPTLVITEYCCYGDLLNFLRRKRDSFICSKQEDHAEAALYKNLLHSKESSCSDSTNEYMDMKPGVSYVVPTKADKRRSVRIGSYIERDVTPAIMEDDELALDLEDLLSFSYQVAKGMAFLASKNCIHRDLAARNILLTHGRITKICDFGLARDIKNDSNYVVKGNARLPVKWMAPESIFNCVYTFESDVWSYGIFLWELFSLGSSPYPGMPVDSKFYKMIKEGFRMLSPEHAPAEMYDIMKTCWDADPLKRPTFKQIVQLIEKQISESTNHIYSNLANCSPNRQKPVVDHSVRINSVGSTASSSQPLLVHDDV
Chain of EGFR (P00533 25-1210): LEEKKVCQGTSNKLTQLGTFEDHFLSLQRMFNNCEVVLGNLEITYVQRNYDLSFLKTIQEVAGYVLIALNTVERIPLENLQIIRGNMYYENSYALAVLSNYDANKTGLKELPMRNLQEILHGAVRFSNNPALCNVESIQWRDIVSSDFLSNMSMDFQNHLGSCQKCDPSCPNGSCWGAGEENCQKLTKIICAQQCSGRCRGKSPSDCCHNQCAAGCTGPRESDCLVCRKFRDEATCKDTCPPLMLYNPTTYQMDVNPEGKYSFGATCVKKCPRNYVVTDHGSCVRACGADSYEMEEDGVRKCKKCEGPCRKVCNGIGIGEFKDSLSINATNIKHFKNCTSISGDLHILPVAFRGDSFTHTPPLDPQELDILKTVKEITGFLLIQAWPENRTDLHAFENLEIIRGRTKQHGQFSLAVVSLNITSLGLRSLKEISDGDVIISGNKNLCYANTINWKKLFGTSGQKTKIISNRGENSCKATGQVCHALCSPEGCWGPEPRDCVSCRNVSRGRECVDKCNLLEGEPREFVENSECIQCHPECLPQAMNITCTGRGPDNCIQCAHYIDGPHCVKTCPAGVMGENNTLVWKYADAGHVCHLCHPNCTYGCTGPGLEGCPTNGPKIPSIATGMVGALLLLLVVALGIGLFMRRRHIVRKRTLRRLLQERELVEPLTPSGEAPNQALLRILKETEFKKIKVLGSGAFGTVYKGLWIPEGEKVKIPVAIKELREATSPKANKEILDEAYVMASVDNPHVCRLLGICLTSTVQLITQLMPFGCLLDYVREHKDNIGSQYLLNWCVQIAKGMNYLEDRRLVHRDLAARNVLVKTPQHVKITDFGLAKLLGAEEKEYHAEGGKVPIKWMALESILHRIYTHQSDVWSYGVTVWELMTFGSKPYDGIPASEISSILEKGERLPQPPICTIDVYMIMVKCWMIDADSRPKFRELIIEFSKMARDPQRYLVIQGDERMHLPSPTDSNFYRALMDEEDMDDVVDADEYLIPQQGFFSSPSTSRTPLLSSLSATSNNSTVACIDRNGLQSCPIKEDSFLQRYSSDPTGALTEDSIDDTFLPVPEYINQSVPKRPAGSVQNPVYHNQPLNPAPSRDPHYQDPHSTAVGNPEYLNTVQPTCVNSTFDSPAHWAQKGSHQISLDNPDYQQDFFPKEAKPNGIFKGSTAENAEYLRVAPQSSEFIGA
Chain of EGFR(T790,L858R) (P00533 669-1210 T790M/L858R limits assumed): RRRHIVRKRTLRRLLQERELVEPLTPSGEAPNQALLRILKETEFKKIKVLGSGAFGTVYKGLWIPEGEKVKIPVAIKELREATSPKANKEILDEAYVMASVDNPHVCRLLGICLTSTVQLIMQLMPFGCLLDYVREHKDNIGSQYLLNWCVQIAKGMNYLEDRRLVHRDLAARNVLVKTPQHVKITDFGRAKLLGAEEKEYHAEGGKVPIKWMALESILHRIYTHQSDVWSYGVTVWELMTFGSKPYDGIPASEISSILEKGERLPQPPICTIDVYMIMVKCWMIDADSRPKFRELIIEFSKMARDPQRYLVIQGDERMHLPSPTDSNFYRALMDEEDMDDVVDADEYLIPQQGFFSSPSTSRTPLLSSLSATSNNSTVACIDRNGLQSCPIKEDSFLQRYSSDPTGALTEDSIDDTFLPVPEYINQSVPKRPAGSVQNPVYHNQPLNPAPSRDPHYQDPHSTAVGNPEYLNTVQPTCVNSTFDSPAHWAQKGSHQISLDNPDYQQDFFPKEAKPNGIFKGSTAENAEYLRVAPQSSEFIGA
Chain of Ephb1 (P54762 18-984): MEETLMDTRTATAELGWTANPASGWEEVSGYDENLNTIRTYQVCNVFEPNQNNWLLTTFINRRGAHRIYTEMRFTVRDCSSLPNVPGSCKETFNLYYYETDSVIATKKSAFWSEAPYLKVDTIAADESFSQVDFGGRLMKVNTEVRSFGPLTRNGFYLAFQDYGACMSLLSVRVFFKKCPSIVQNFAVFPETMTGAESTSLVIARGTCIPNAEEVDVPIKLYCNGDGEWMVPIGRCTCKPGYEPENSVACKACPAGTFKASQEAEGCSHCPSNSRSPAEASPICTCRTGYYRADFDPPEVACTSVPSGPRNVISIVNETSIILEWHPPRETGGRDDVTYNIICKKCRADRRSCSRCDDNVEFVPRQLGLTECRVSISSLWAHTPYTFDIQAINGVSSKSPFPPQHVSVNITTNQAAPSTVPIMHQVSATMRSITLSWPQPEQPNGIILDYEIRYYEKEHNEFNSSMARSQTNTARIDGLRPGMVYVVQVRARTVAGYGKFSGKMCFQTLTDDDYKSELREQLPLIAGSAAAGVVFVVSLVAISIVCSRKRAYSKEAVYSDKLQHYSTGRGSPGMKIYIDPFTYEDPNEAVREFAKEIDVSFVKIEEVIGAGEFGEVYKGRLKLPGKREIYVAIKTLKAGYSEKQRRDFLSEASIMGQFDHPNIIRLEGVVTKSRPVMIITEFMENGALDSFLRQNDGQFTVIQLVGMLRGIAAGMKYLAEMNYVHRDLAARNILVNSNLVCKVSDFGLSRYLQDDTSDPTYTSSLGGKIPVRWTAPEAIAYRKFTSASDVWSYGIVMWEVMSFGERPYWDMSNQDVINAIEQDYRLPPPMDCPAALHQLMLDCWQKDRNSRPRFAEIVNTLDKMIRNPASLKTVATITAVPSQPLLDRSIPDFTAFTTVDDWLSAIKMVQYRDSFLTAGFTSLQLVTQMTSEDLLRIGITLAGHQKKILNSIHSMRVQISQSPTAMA

Consider `Cc1ccccc1NS(=O)(=O)c1ccc2c(c1)/C(=C/c1nc3ccccc3[nH]1)C(=O)N2` [Indo5, 3-(1H-benzimidazol-2-methylene)-5-(2-methylphenylaminosulfo)-2-indolone], for which, in [1], the “apoptosis in tumor tissues (TUNEL staining)” value is reported as “increased apoptosis”. Besides, the HGF-stimulated cell scattering entry in series [2] is recorded as “blocked”. Moreover, the IC50 in series [3] was 0.618 µM; in series [8], above 10 µM; in series [9], 1.11 to 1.87 µM; in [11] it was 1.28 ± 0.016 µM; in series [12], 1.11 ± 0.018 µM; in [13] it was above 10 µM. In addition, the IC50 in [15] was above 10 µM; in series [16], above 30 µM; in series [18] it was above 10 µM. For the same molecule, the “inhibition rate (tumor weight)” value in series [4] is 65.2%. In addition, in [5], the BDNF-induced cell migration entry is “suppressed”. In series [6], this molecule returned a half-life of 5 min. Besides, the figures for the “effect on cell proliferation” value in series [7], in [19] and in series [20] were “No obvious effect”, “no obvious effect” and “weak inhibitory effect”, respectively. In addition, the “tumor cells in liver tissue (histological examination)” value in [10] is reported as “no obvious tumor cells”. For the same molecule, in series [14], the “HGF-induced c-Met signaling pathway activation” value is listed as “dramatically suppressed”. In series [17] (24 mg/kg Indo5 once daily by oral gavage), this molecule yielded a survival rate of 40%. The molecule further came in with an overall survival rate in [17] (48 mg/kg Indo5 once daily by oral gavage) of 77.7%.

Values taken from paper PMC6421704 (Journal of Experimental & Clinical Cancer Research : CR, 2019).
